Key:
E. coli 3B-24 = test: MIC by doubling dilution, colistin sulfate-susceptible E. coli 3B-24; assay type: cell-based, Escherichia coli; details: for In vitro minimum inhibitory concentration (MIC) of the substance alone: E. coli 3B-24, colistin sulfate-susceptible, derivatives as hydrochlorides; for In vitro MIC of colistin sulfate in the presence of the substituted benzylideneguanidine derivative: E. coli 3B-24, culture comprised 20.0 ppm of the derivative (hydrochloride), colistin sulfate serially diluted
E. coli 2G-7 = test: MIC by doubling dilution, colistin sulfate-resistant E. coli 2G-7; details: for In vitro minimum inhibitory concentration (MIC) of the substance alone: E. coli 2G-7, colistin sulfate-resistant, derivatives as hydrochlorides; for In vitro MIC of colistin sulfate in the presence of the substituted benzylideneguanidine derivative: E. coli 2G-7, resistant, culture comprised 20.0 ppm of the derivative (hydrochloride)
E. coli 2S-19 = test: MIC by doubling dilution, colistin sulfate-susceptible E. coli 2S-19; assay type: cell-based, Escherichia coli; details: for In vitro minimum inhibitory concentration (MIC) of the substance alone: E. coli 2S-19, colistin sulfate-susceptible, derivatives as hydrochlorides; for In vitro MIC of colistin sulfate in the presence of the substituted benzylideneguanidine derivative: E. coli 2S-19, culture comprised 20.0 ppm of the derivative (hydrochloride), colistin sulfate serially diluted
E. coli 3H-4 = test: MIC by doubling dilution, colistin sulfate-resistant E. coli 3H-4; details: for In vitro minimum inhibitory concentration (MIC) of the substance alone: E. coli 3H-4, colistin sulfate-resistant, derivatives as hydrochlorides; for In vitro MIC of colistin sulfate in the presence of the substituted benzylideneguanidine derivative: E. coli 3H-4, resistant, culture comprised 20.0 ppm of the derivative (hydrochloride)
E. coli 3Y-9 = test: MIC by doubling dilution, colistin sulfate-susceptible E. coli 3Y-9; assay type: cell-based, Escherichia coli; details: for In vitro minimum inhibitory concentration (MIC) of the substance alone: E. coli 3Y-9, colistin sulfate-susceptible, derivatives as hydrochlorides; for In vitro MIC of colistin sulfate in the presence of the substituted benzylideneguanidine derivative: E. coli 3Y-9, culture comprised 20.0 ppm of the derivative (hydrochloride), colistin sulfate serially diluted
E. coli 5W-7 = test: MIC by doubling dilution, colistin sulfate-susceptible E. coli 5W-7; assay type: cell-based, Escherichia coli; details: for In vitro minimum inhibitory concentration (MIC) of the substance alone: E. coli 5W-7, colistin sulfate-susceptible, derivatives as hydrochlorides; for In vitro MIC of colistin sulfate in the presence of the substituted benzylideneguanidine derivative: E. coli 5W-7, culture comprised 20.0 ppm of the derivative (hydrochloride), colistin sulfate serially diluted
E. coli 4D-6 = test: MIC by doubling dilution, colistin sulfate-resistant E. coli 4D-6; details: for In vitro minimum inhibitory concentration (MIC) of the substance alone: E. coli 4D-6, colistin sulfate-resistant, derivatives as hydrochlorides; for In vitro MIC of colistin sulfate in the presence of the substituted benzylideneguanidine derivative: E. coli 4D-6, resistant, culture comprised 20.0 ppm of the derivative (hydrochloride)
E. coli 5F-1 = test: MIC by doubling dilution, colistin sulfate-resistant E. coli 5F-1; details: for In vitro minimum inhibitory concentration (MIC) of the substance alone: E. coli 5F-1, colistin sulfate-resistant, derivatives as hydrochlorides; for In vitro MIC of colistin sulfate in the presence of the substituted benzylideneguanidine derivative: E. coli 5F-1, resistant, culture comprised 20.0 ppm of the derivative (hydrochloride)

| In vitro minimum inhibitory concentration (MIC) of the substance alone (E. coli 3B-24) | In vitro MIC of colistin sulfate in the presence of the substituted benzylideneguanidine derivative (E. coli 3B-24) | In vitro minimum inhibitory concentration (MIC) of the substance alone (E. coli 2G-7) | In vitro MIC of colistin sulfate in the presence of the substituted benzylideneguanidine derivative (E. coli 2G-7) | In vitro minimum inhibitory concentration (MIC) of the substance alone (E. coli 2S-19) | In vitro MIC of colistin sulfate in the presence of the substituted benzylideneguanidine derivative (E. coli 2S-19) | In vitro minimum inhibitory concentration (MIC) of the substance alone (E. coli 3H-4) | In vitro MIC of colistin sulfate in the presence of the substituted benzylideneguanidine derivative (E. coli 3H-4) | In vitro minimum inhibitory concentration (MIC) of the substance alone (E. coli 3Y-9) | In vitro MIC of colistin sulfate in the presence of the substituted benzylideneguanidine derivative (E. coli 3Y-9) | In vitro minimum inhibitory concentration (MIC) of the substance alone (E. coli 5W-7) | In vitro MIC of colistin sulfate in the presence of the substituted benzylideneguanidine derivative (E. coli 5W-7) | In vitro minimum inhibitory concentration (MIC) of the substance alone (E. coli 4D-6) | In vitro MIC of colistin sulfate in the presence of the substituted benzylideneguanidine derivative (E. coli 4D-6) | In vitro minimum inhibitory concentration (MIC) of the substance alone (E. coli 5F-1) | In vitro MIC of colistin sulfate in the presence of the substituted benzylideneguanidine derivative (E. coli 5F-1) | SMILES |
| --- | --- | --- | --- | --- | --- | --- | --- | --- | --- | --- | --- | --- | --- | --- | --- | --- |
| >800 ppm | 1.00 ppm | >800 ppm | 4 ppm | >800 ppm | 1.00 ppm | >800 ppm | 4 ppm | >800 ppm | 1.00 ppm | >800 ppm | 0.50 ppm | >800 ppm | 16 ppm | >800 ppm | 8 ppm | N=C(NN=Cc1ccc([N+](=O)[O-])cc1)NN=Cc1ccc([N+](=O)[O-])cc1 [Compound 15] |
| >800 ppm | 0.50 ppm | >800 ppm | 4 ppm | >800 ppm | 1.00 ppm | >800 ppm | 4 ppm | >800 ppm | 1.00 ppm | >800 ppm | 0.50 ppm | >800 ppm | 16 ppm | >800 ppm | 8 ppm | N#Cc1ccc(C=NN=C(N)NN=Cc2ccc(C#N)cc2)cc1 [Compound 13] |
| >800 ppm | 1.00 ppm | >800 ppm | 4 ppm | >800 ppm | 1.00 ppm | >800 ppm | 4 ppm | >800 ppm | 1.00 ppm | >800 ppm | 0.50 ppm | >800 ppm | 16 ppm | >800 ppm | 8 ppm | Cc1ccc(C=NN=C(N)NN=Cc2ccc(C)cc2)cc1 [Compound 10] |

From US11116735B2, “Use of substituted benzylideneguanidine derivatives as synergists for polymyxin antibiotics” (GUANGZHOU INSIGHTER BIOTECHNOLOGY CO., LTD., priority 2015, dated 2021)
